Marks after values point to notes of the source that are not given here.
Columns and labels:
Melan-a = assay: Effects of piperine and TPA on growth of Melan-a (panel of cell types); format: cell-based, mouse; conditions: piperine 0.1 and 1 μM (FIG. 4)
Method: Cells of mouse melan-a cell line (passage number 18-24), a first known line of non-tumorigenic pigmented mouse melanocytes were maintained in a flask (Costar, Cambridge, Mass., USA) using RPMI 1640 (ICN, Costa, Mesa, Calif., USA) as a basic medium. For microplate proliferation assays, subconfluent melan-a cultures were trypsinized (0.25% trypsin at 37° C. for 5-10 min) and inoculated with a repeater-pipettor (Finn pipette, Labsystems, Finland) into 96-well microtiter plates (Costar, Cambridge, Mass., USA). The plates were incubated at 37° C. in a 10% CO2, 90% air humidified atmosphere for the stated length of time. At the end of the incubation, an SRB assay was performed. Briefly, cells attached to the bottom of the plate were fixed by addition of cold trichloroacetic acid (TCA, 4° C., Aldrich, Dorset, UK) on the top of the growth medium (final TCA 20% w/v). The plate was placed at 4° C. for 1 hour before being gently washed five times with tap water. It was allowed to dry in air, or aided with a hair dryer to speed up the drying process, then 50 μl of 4% w/v SRB dissolved in 1% acetic acid in water was added to each well for 30 min. […] The plate was shaken for 15 min on a gyratory shaker followed by reading the optical density (OD) at 550 nm in a microplate spectrophotometer (Anthos Labtec HT3, version 1.06). […]

FM21E Melanoblast = assay: Effects of piperine and TPA on growth of human melanoblasts, SRB assay; format: cell-based
Method: (§1) In order to determine the specificity of piperine, a panel of different cell types were employed to facilitate this investigation. These included melan-a, melan-c, SVK14, CSM, XB2, SC1, B16F10, IM9, CACO2, Swiss 3T3 cell lines and normal human lymphocytes. TPA (20 nM) was also tested on these cells.
Human melanoblasts in culture in this experiment were established from human foetal skin. Subconfluent melanoblasts maintained in MCDB 153 medium supplemented with 10% FBS, 10 ng/ml stem cell factor (SCF) and 1 nM endothelin 3 were subcultured and inoculated into 96-well microplate with 6×10^3 cells/100 μl/well. After incubation in the 10% CO2, humidified atmosphere, at 37° C. for 3-4 hours to allow the attachment of the cells on the plate, piperine dissolved in MeOH and water was added into the wells. The final concentrations of piperine were 1, 5, 10, 100 μM, with TPA (20 nM) as positive control. Six replicates were used in each group of treatment, with 12 wells used for vehicle control. The incubation was conducted for 5 days before cells were harvested by fixing with cold trichloroacetic acid (TCA, at 4° C., final concentration 20% v/v), and evaluated for cell number using an SRB assay. […] Growth in the presence of piperine and TPA was expressed as % of control incubations containing no piperine or TPA. […]

FM21E human melanocytes = assay: Effects of piperine and TPA on growth of human melanocytes, 24-well plate, SRB assay; format: cell-based
Method: as §1
For the first protocol, subconfluent human melanocytes maintained in a Ø100 mm petri dish were subcultured into two 24-well plates (Falcon) using basic culture medium of RPMI 1640 supplemented with FBS (10%), bFGF (100 pM), CT (1 nM) and endothelin 1 (1 nM). The initial plating density was 20,000 cells/cm^2 (38,200 cells/well) with each well containing 1000 μl medium. After incubation in a 10% CO2, humidified atmosphere, at 37° C. for 2-3 hours to allow the attachment of the cells, piperine in 500 μl medium was added into wells to made up final concentrations of 0, 1, 5, 10 and 100 μM. Cells only in the medium with above supplement lacking of endothelin 1 were also set up as negative control. Six replicates were used in each group of treatment, and culture was incubated for 5 days before the cells were harvested by fixing with cold TCA (final concentration 20%) and processed with SRB assay. The solubilized SRB dye solution was transferred to a 96-well plate for optical density reading.

B16F10 mouse melanoma = assay: Effects of piperine and TPA on growth of B16F10 (panel); format: cell-based
Method: as §1

human melanocytes [1] = assay: Proliferation of human melanocytes cultured in petri dishes, haemocytometer count; format: cell-based
Method: (§2) For the second protocol, subconfluent human melanocytes were subcultured in a Ø60 mm petri dishes (28 cm^2, Falcon) with RPMI 1640 basic medium supplemented with FBS (10%), CT (1 nM), bFGF (100 pM) and endothelin 1 (1 nM). The initial plating density was 10,000 cells/cm^2, with 5 ml medium per dish. Cells were incubated for 2-3 hours in 10% CO2, humidified atmosphere, at 37° C., followed by addition of piperine solution in to the dishes, making the final concentrations of 0, 1, 5, 10 and 100 μM. Cells in the above supplemented medium lacking endothelin 1 were also set up as a negative control. Three dishes were used for each treatment and the culture was maintained for 5 days before cells were harvested with trypsinisation and counted with a haemocytometer chamber. For melanin production experiment, the harvested cells were centrifuged and pelleted. After carefully removing the medium, NaOH (1 M) was used to solubilized the cell pellets and optical density read at 475 nm in a Perkin-Elmer UV spectrophotometer (model UV/VIS Lambda 2). The melanin content was calculated by using a regression equation y=0.005+0.005× corresponding to the calibration curve for synthetic melanin.

human melanocytes [2] = assay: Melanin production of human melanocytes cultured in petri dishes; format: cell-based; conditions: 5 days
Method: as §2

melan-a cells = assay: Proliferation of melan-a cells counted with haemocytometer; format: cell-based, mouse; parameters: unit not given here; conditions: 20 nM TPA; 4 days
Method: Melan-a cells were plated in petri dishes (Ø35 mm, Nunclon, Denmark) with a plating density of 2×10^4/ml and Piper nigrum extract at concentrations of 0.01 and 0.1 mg/ml. A negative control (cells in medium only) and positive TPA (20 nM) control were also set up. After 4 days the cells in each dish were harvested and counted with haemocytometer.

O=C(/C=C/C=C/c1ccc2c(c1)OCO2)N1CCCCC1 [Piperine, (E,E)-1-[5-(1,3-benzodioxol-5-yl)-1-oxo-2,4-pentadienyl]piperidine]
effect on melan-a proliferation (Melan-a): significantly stimulated melan-a proliferation
more cell yield compared to vehicle control (FM21E Melanoblast; 100 μM piperine for 5 days): 34%
more cells yielded (FM21E human melanocytes; 10 μM piperine for 5 days, 24-well plate, ET1 1 nM): 36%
effect on the growth of human melanocytes (FM21E human melanocytes; piperine 100 μM, 24-well plate): inhibitory effect
effect on B16 mouse melanoma cell line (B16F10 mouse melanoma): inhibitory effects
cell number relative to ET1 (1 nM) control (human melanocytes [1]; 5 μM piperine for 5 days, petri dishes): over twice as many
Cell no. (×10^−4) ± SD after cultured for 5 days (human melanocytes [1]; ET1 (1 nM) + piperine (1 μM)): 60.83 ± 16.78 ×10^−4
Cell no. (×10^−4) ± SD after cultured for 5 days (human melanocytes [1]; ET1 (1 nM) + piperine (5 μM)): 78.96 ± 5.63 ×10^−4
Cell no. (×10^−4) ± SD after cultured for 5 days (human melanocytes [1]; ET1 (1 nM) + piperine (10 μM)): 64.79 ± 13.47 ×10^−4
Cell no. (×10^−4) ± SD after cultured for 5 days (human melanocytes [1]; ET1 (1 nM) + piperine (100 μM)): 61.04 ± 10.04 ×10^−4
activity at 1 µM (human melanocytes [1]; Homo sapiens, Melanocyte, 120 h, ET1 (1 nM) + piperine (1 μM), 5 days, read-out: % of control (ET1 1 nM)): 169%
activity at 5 µM (human melanocytes [1]; Homo sapiens, Melanocyte, 120 h, ET1 (1 nM) + piperine (5 μM), 5 days, read-out: % of control (ET1 1 nM)): 219%
activity at 10 µM (human melanocytes [1]; Homo sapiens, Melanocyte, 120 h, ET1 (1 nM) + piperine (10 μM), 5 days, read-out: % of control (ET1 1 nM)): 180%
activity at 100 µM (human melanocytes [1]; Homo sapiens, Melanocyte, 120 h, ET1 (1 nM) + piperine (100 μM), 5 days, read-out: % of control (ET1 1 nM)): 169%
Melanin content/10^4 cells (human melanocytes [2]; ET1 (1 nM) + piperine (1 μM)): 0.42 ± 0.03 μg
OD reading ± SD at 475 nm (human melanocytes [2]; ET1 (1 nM) + piperine (1 μM)): 0.134 ± 0.014
Melanin content/10^4 cells (human melanocytes [2]; ET1 (1 nM) + piperine (5 μM)): 0.334 ± 0.01 μg
Melanin content/10^4 cells (human melanocytes [2]; ET1 (1 nM) + piperine (10 μM)): 0.41 ± 0.07 μg
Melanin content/10^4 cells (human melanocytes [2]; ET1 (1 nM) + piperine (100 μM)): 0.46 ± 0.001 μg

tetradecanoyl phorbol acetate [TPA, reference compound]
cell number (melan-a cells): 5.0*
more cell yield compared to vehicle control (FM21E Melanoblast; TPA 20 nM for 5 days): over 50%
effect on the growth of human melanocytes (FM21E human melanocytes; TPA 20 nM in the presence of 1 nM endothelin 1): not able to stimulate cell growth

Source: patent US6346539B1, “Treatment of skin conditions” (BTG International Limited, priority 1998, dated 2002)
